# Measurements reported in US9944668B2, “Manganese-based magnetic resonance contrast agents” (The General Hospital Corporation, priority 2013, dated 2018).
# Legend:
# Type in all cases: physicochemical
# [1] = T1 relaxivity (r1) measurement at 1.4 T, 37° C., TRIS buffer pH 7.4; conditions: for r1 (relaxivity): pH 7.4, 37° C., 1.4 Tesla, TRIS buffer
# Method: (§1) Liquid chromatography-electrospray mass spectrometry (LC-MS) was performed using an Agilent 1100 Series apparatus with an LC/MSD trap and Daly conversion dynode detector with UV detection at 220, 254 and 280 nm. The methods used on this system are as follows: (a) Luna C18 column (100×2 mm); eluent A: H2O/0.1% formic acid, B: MeCN/0.1% formic acid; gradient: 5% B to 95% B over 9 minutes; flow rate 0.8 mL/min (used for characterization of organic compounds), and (b) Kromasil C18 column (250×4.6 mm); eluent C: 95% MeCN/5% 10 mM ammonium acetate, D: 10 mM ammonium acetate; gradient 5% C to 8% C over 14 minutes; flow rate 0.8 ml/min (used for characterization of manganese complexes). Reversed-phase semipreparative purification was performed on a Rainin Dynamax HPLC system with UV detection at 254 nm using a Polaris C18 column. The method used for purification is as follows: The mobile phase A was 50 mM ammonium acetate buffer, pH 6.5 and mobile phase B was a mixture of 5% 50 mM ammonium acetate buffer, pH 6.5/95% MeCN. Starting from 5% B, the fraction of B increased to 8% over 23 minutes. The column was washed with 100% B for 2 minutes and then ramped to 5% B. The system was re-equilibrated at 5% B for 3 minutes. Relaxivity measurements were performed on a Bruker mq60 Minispec at 1.4 T and 37° C. Manganese concentrations were determined using an Agilent 7500a ICP-MS system. All samples were diluted with 0.1% Triton X-100 in 5% nitric acid containing 20 ppb of Lu (as internal standard). The ratio of Mn (54.94)/Lu(174.97) was used to quantify the manganese concentration. A linear calibration curve ranging from 0.1 ppb to 200 ppb was generated daily for the quantification. UV-Vis spectra were recorded on a SpectraMax M2 spectrophotometer using quartz cuvette with a 1 cm path length. Cyclic voltammetry of Mn^IIHBET, Mn^IIEDTA and Mn^IIIHBET was recorded using a Nuvant EZstat pro potentiostat in TRIS buffer (pH=7.4), containing 0.5M KNO3 as supporting electrolyte, at 100 mVs-1 scan rate. Glassy carbon was used as the working electrode, Ag/AgCl served as the reference electrode and Pt wire was used as the auxiliary electrode. The K4FeCN6/K3FeCN6 couple was used as the internal standard.
# T1 was measured with an inversion recovery pulse sequence taking 10 inversion times. Relaxivity was determined from the slope of a plot of 1/T1 vs. concentration of in TRIS buffer, pH=7.4 at 37° C. The concentration of manganese in each stock solution was determined using ICP-MS.
# [2] = Cyclic voltammetry of manganese complexes (Mn(III)/Mn(II) redox couple); conditions: for Half-cell potential: pH 7.4, vs. normal hydrogen electrode (NHE)
# Method: as §1
# [3] = Kinetics of reduction of Mn^III-HBET by glutathione; conditions: 37° C., pH 7.4; first-order in both [GSH] and [Mn^III-HBET]
# Method: This series of kinetic experiments were conducted at 37° C. (pH 7.4) to determine the empirical rate law for the reduction of Mn^III-HBET by glutathione. […] This feature was used to monitor the reduction of […] over time. Initial reaction rates were measured at a three different glutathione concentrations (5 mM, 10 mM and 20 mM). Additionally, for each glutathione concentration, the reaction was performed at four different initial concentrations of Mn^III-HBET (0.3 mM, 0.4 mM, 0.5 mM and 0.6 mM). By using a large excess of glutathione in these experiments, we found the reaction behaved pseudo first-order with respect to the […] complex as expressed in equation S1. [Mn^IIIHBET]t=[Mn^IIIHBET]o·e^−k^obs^·t (eq. S1)
# Here, the observed rate constant (kobs) is simply the product of the actual rate constant (k) and [GSH], t is time, and the subscripts ‘t’ and ‘o’ refer to the concentration at time ‘t’ or the initial concentration, respectively. […] In this way, the slope of each line is equal to −k·[GSH] and the intercept is In[MnIII-HBET]o. Based on these experiments, we determined that the reaction was first-order in both [GSH] and [Mn^III-HBET] with an overall second-order rate constant of (3.8±0.3)×10^−1M^−1s^−1.
# [4] = T1 relaxivity measurement by MR imaging at 4.7 T; conditions: room temperature, pH 7.4 TRIS buffer
# Method: MR imaging was performed using a Bruker Biospec 4.7 T system. Three samples (˜500 μL) were placed in a homemade sample holder and imaged using a volume coil. Acquisition matrix=64×256 for 0.234×0.312 mm^2 in-plane resolution; slice thickness=5 mm. T1-weighted images were obtained with a fast low angle shot (FLASH) gradient echo sequence: TR/TE/FA=20/5.44/40° with 8 averages. T1 was determined using a 2D rapid acquisition refocused echo (RARE) inversion recovery sequence: TR=3200 ms, TE=9.7 ms. Inversion times (TI): 5, 45, 85, 165, 325, 645, 1285, 1925 and 3205 ms. T1 was obtained from a nonlinear least square fit of the signal intensity (SI(t)) vs. TI curve where T1, SI(0) and a are adjustable parameters, equation S2. SI(t)=SI(0)[1−α,e^TI/T1] (eq. S2)
# [5] = Relaxivity (r1) at different field strengths in HEPES buffer; conditions: 37° C., pH 7.4 HEPES buffer
# Method: The relaxivities of the compounds for Formulas (XI) and (XII) were determined at different field strengths at 37° C. in pH 7.4 HEPES buffer. The relaxivity was obtained from the slope of a plot of 1/T1 vs. [Mn] for different Mn concentrations. Since Formula (XI) contains 6 Mn per molecule, the ionic (per Mn) and molecular (per molecule) relaxivities are given below.
compound,measurement,setting,value
"O=C([O-])CN(CC(=O)[O-])C1CCCCC1N(CC(=O)[O-])Cc1ccccc1[O-].[Mn+2].[Na+].[Na+] (racemic) [Compound 20, Na2[Mn^IIcycHBET]]",r1 (relaxivity),[1],3.26 mM⁻¹ s⁻¹
"O=C([O-])CN(CCN(CC(=O)[O-])Cc1ccccc1[O-])CC(=O)[O-].[Mn+2].[Na+].[Na+] [Compound 4, Na2[Mn^IIHBET]]",Half-cell potential,[2],379 mV
same,r1 (relaxivity),[1],2.76 mM⁻¹ s⁻¹
"O=C([O-])CN(CCN(CC(=O)[O-])Cc1ccccc1[O-])CC(=O)[O-].[Mn+3].[Na+] [Compound 5, Na[Mn^IIIHBET]]",overall second-order rate constant of reduction by glutathione,[3],(3.8±0.3)×10^−1 M^−1s^−1
same,r1 (relaxivity),[1],1.05 mM⁻¹ s⁻¹
same,fold higher relaxivity of reduced form vs oxidized form,[4],3.3 fold
"COc1ccc([O-])c(CN(CCN(CC(=O)[O-])CC(=O)[O-])CC(=O)[O-])c1.[Mn+2].[Na+].[Na+] [Compound 9, Na2[Mn^IIHBET-OMe]]",Half-cell potential,[2],344 mV
same,r1 (relaxivity),[1],3.11 mM⁻¹ s⁻¹
"O=C([O-])CN(CCN(CC(=O)[O-])Cc1cc([N+](=O)[O-])ccc1[O-])CC(=O)[O-].[Mn+2].[Na+].[Na+] [Compound 13, Na2[Mn^IIHBET-NO2]]",r1 (relaxivity),[1],2.28 mM⁻¹ s⁻¹
"O=C([O-])CN(CCN(CC(=O)[O-])Cc1cc([N+](=O)[O-])ccc1[O-])CC(=O)[O-].[Mn+3].[Na+] [Compound 14, Na[Mn^IIIHBET-NO2]]",Half-cell potential,[2],476 mV
same,r1 (relaxivity),[1],0.34 mM⁻¹ s⁻¹
"O=C([O-])CN(CC(=O)[O-])C1CCCCC1N(CC(=O)[O-])Cc1ccccc1[O-].[Mn+3].[Na+] (stereo not shown) [Compound 21, Na[Mn^IIIcycHBET]]",Half-cell potential,[2],365 mV
same,r1 (relaxivity),[1],1.56 mM⁻¹ s⁻¹
"O=C([O-])CN(CC(=O)[O-])C1CCCCC1N(CC(=O)[O-])Cc1cc([N+](=O)[O-])ccc1[O-].[Mn+2].[Na+].[Na+] (stereo not shown) [Compound 30, Na2[Mn^IIcycHBET-NO2)]]",r1 (relaxivity),[1],2.30 mM⁻¹ s⁻¹
"O=C([O-])CN(CC(=O)[O-])C1CCCCC1N(CC(=O)[O-])Cc1cc([N+](=O)[O-])ccc1[O-].[Mn+3].[Na+] (stereo not shown) [Compound 31, Na[Mn^IIIcycHBET-NO2]]",Half-cell potential,[2],488 mV
"O=C([O-])CN(CCN(CC(=O)[O-])Cc1ccccc1[O-])Cc1ccccc1[O-].[Mn+3] [Mn^III-HBED, reference compound]",half-cell potential (Mn^II/Mn^III),"[2]; TRIS buffer pH 7.4, vs. K4Fe(CN)6/K3Fe(CN)6",0.016 V
Mn6[N3P3-(TyOH-EDTA)6] [(XI)],Relaxivity r1 (per Mn),[5]; 0.47T,9.07 mM⁻¹ s⁻¹
same,Relaxivity r1 per molecule,[5]; 0.47T,54.4 mM⁻¹ s⁻¹
same,Relaxivity r1 (per Mn),[5]; 1.4T,9.28 mM⁻¹ s⁻¹
same,Relaxivity r1 per molecule,[5]; 1.4T,55.7 mM⁻¹ s⁻¹
same,Relaxivity r1 (per Mn),[5]; 4.7T,6.54 mM⁻¹ s⁻¹
same,Relaxivity r1 per molecule,[5]; 4.7T,39.2 mM⁻¹ s⁻¹
same,Relaxivity r1 (per Mn),[5]; 9.4T,4.94 mM⁻¹ s⁻¹
same,Relaxivity r1 per molecule,[5]; 9.4T,29.6 mM⁻¹ s⁻¹
same,Relaxivity r1 (per Mn),[5]; 11.7T,3.57 mM⁻¹ s⁻¹
same,Relaxivity r1 per molecule,[5]; 11.7T,21.4 mM⁻¹ s⁻¹
Na[Mn(TyOH-EDTA)] [(XII)],Relaxivity r1 (per Mn),[5]; 0.47T,3.60 mM⁻¹ s⁻¹
same,Relaxivity r1 (per Mn),[5]; 1.4T,2.80 mM⁻¹ s⁻¹
same,Relaxivity r1 (per Mn),[5]; 9.4T,3.65 mM⁻¹ s⁻¹
same,Relaxivity r1 (per Mn),[5]; 11.7T,3.05 mM⁻¹ s⁻¹
[Mn(CyP3A)] [(IX)],Relaxivity r1,"[1]; 1.41T, 37° C., pH 7.4 Tris buffer",2.50 mM⁻¹ s⁻¹
